{"source": "patent US9757375B2", "about": "“Compounds that inhibit human DNA ligases and methods of treating cancer” (University of Maryland, Baltimore, priority 2007, dated 2017)", "key": {"[1]": {"system": "HCT116 and MCF10A cells", "assay": "Cell proliferation screen, result stated for one or both cell lines", "type": "cell-based, human", "details": "in vivo cell culture screen", "method": "The ability of the compounds identified by CADD to inhibit proliferation of normal mammary epithelial MCF10A cells and colon carcinoma HCT116 cells was determined using a Biomek FX Laboratory Automation Workstation (Beckman Coulter, Inc., Fullerton, Calif.). On day 0, 20 μl of complete medium containing the appropriate number of cells (150-300) was plated per well of a 384-well tissue plate (Fisher Scientific, Hampton, N.H.) and incubated overnight at 37° C. with 5% CO2 and 90% humidity. Next day, day 1, compounds were prepared by serial dilution with complete medium to yield the concentration 100 μM, and 20 μl was added to each well containing 20 μl of medium and cells yielding the final concentration 50 μM in 40 μl volume. Plates were incubated for additional 3 days (days-2-5) until control cells (0.5% DMSO) reached ˜70-80% confluency. On day 6, 40 μl of lysis/detection solution containing 1.2% Igepal CA-630 (Sigma) and a 1:1000 dilution of SYBR Green I nucleic acid stain (Molecular Probes, Eugene, Oreg.) was added to each well. Following an overnight incubation at 37° C., total fluorescence was measured using a Fluorostar Galaxy plate reader with a 485 nm excitation filter and 520 nm emission filter set (BMG Labtech, Inc., Durham, N.C.). Data was exported to a custom program that determined growth inhibition by dividing each individual fluorescence value by the average of fluorescence values obtained with cells treated with DMSO alone.\nThe 192 human DNA ligase inhibitors were screened in parallel for effects on proliferation and the ability to potentiate the effects of several DNA damaging agents using two cell human lines, a colon cancer line HCT116 and a normal breast epithelial cell line MCF10A using a Biomek FX Laboratory Automation Workstation as described (23). The DNA damaging agents used, methyl methanesulfonate (MMS), camptothecin, cis-platinum, 3 aminobenzamide and ionizing radiation, are representatives of classes of agents used to treat cancer. Briefly, HCT116 and MCF10A cells were plated in 96 well plates such that the cultures were about 80% confluent after 5 days incubation. Compounds were added to the cultures at either 15 μM or 50 μM 1 day after plating. After incubation for 3 days, cell lysed in a solution containing 1.2% Igepal CA-630 and SYBR green that stains DNA (1:1000, Molecular Probes, Eugene, Oreg.). Subsequently, fluorescence was measured per well. The studies with DNA damaging agents were performed as follows. […] For ionizing radiation, cells were pre-incubated with the compounds at 50 μM for 1 hour prior to exposure to 2 gray of ionizing radiation. Cultures were incubated for 3 days and then treated as above."}, "[2]": {"system": "MCF10A cells", "assay": "Cell proliferation screen (SYBR Green, Biomek FX)", "type": "cell-based, human", "details": "for inhibition at 50 µM: Homo sapiens, MCF-10A", "in_short": "(§1)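 HCT116 and MCF10A cells, 150–300 per well, exposed 1 day after plating to compounds at 50 μM final (15 μM or 50 μM in the parallel screen) for 3 days at 37 °C, 5% CO2. Cells lysed overnight with 1.2% Igepal CA-630 plus SYBR Green I (1:1000), fluorescence read at 485/520 nm. Growth inhibition expressed relative to 0.5% DMSO controls.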"}, "[3]": {"system": "HCT116 cells", "assay": "Cell proliferation screen (SYBR Green, Biomek FX)", "type": "cell-based, human", "in_short": "as §1"}, "[4]": {"system": "MCF7, HCT116, HeLa, and MCF10A cells", "assay": "Survival assay on cell panel (FIG. 9)", "type": "cell-based, human", "in_short": "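Clonogenic survival: cells grown with or without ligase inhibitor (3 μmol/L L67 or 20 μmol/L L189 in combination arms), plus MMS (0-50 μM) or Cs-137 irradiation (0-2.5 Gy) where indicated. Colonies stained with crystal violet and counted after two weeks.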"}, "[5]": {"system": "HeLa cell extract", "assay": "Cell extract assay with 5′-flap substrate (DNA replication and long patch base excision repair)", "type": "biochemical, human", "method": "Extracts were prepared from human cervical cancer HeLa cells as described previously (27, 31). For base excision repair (BER) assays, the extraction buffer contained 100 mmol/L of KCl, whereas for nonhomologous end-joining (NHEJ) assays, extraction buffer contained 400 mmol/L of KCl. Where indicated, DNA ligases were immunodepleted from the extracts as described (32) using protein A or G Sepharose beads (GE Healthcare) and anti-Lig1, anti-LigIII (GeneTex), or anti-LigIV (ABCAM) antibodies. Depletion was confirmed by immunoblotting.\nA labeled 5′-flap substrate (0.1 pmol; (31)) was incubated with 20 μg of extract in the absence or presence of ligase inhibitors (100 μmol/L) at 25° C. for 5 min in ligation buffer (final volume, 50 μL). For short patch BER, a linear duplex containing a single uracil residue was preincised by treatment with uracil DNA glycosylase and APE1 (both from NEB) to generate a strand break with 3′ hydroxyl and 5′ deoxyribose phosphate termini. Reactions (50 μL) containing 0.3 pmol of the incised DNA substrate, 10 μCi of [α^32P]dTTP, and 20 μg of extract either in the absence or presence of ligase inhibitors (100 μmol/L) were incubated at 25° C. for 2 min in ligation buffer. After separation by denaturing polyacrylamide gel electrophoresis, labeled oligonucleotides were detected in the dried gel by phosphorImager analysis (Molecular Dynamics).\nNext we used published cell extract assays (16,27,28) that measure different DNA replication and repair transactions to confirm the specificity of the DNA ligase inhibitors. FIG. 4A, the flap substrate (0.1 pmol) was incubated with cell extract (20 μg) in the absence (lane 2, Mock) or presence of 100 μmol/L, of L189 (lane 3), L67 (lane 4), or L82 (lane 5). hLigI (lane 6, I-dp) and hLigIIIa (lane 7, III-dp) were immunodepleted from the cell extracts prior to incubation with the DNA substrate. Lane 1, DNA substrate alone (Sub). The positions of the DNA substrate (24-mer), cleaved product (18-mer), and fully repaired product (43-mer). The flap substrate shown in FIG. 4A corresponds to an intermediate generated on the lagging strand during DNA replication and in the long patch subpathway of base excision repair. Previously it has been shown that DNA ligase I completes these two DNA transactions after removal of the flap by FEN-1 (16,28). A cell extract from the human cervical cancer cell line HeLa was incubated with the indicated labeled flap substrate that mimics a common intermediate in DNA replication and long patch base excision repair in the absence or presence of Compounds 67, 82, 184 and 189 (25 μM). After separation by denaturing gel electrophoresis, labeled fragments corresponding to the DNA substrate, cleaved product and fully repaired product were detected by phosphorimaging (28)."}, "[6]": {"details": "50 μM, percentage of values obtained with DMSO alone"}, "[7]": {"details": "HeLa extract, 100 μmol/L (also 25 μM in the source), FIG. 4A"}}, "note": "Like-named read-outs stand apart in the source and are kept apart here."}
{"smiles": "Cc1c(Br)cc(NCC(=O)N/N=C\\c2cc([N+](=O)[O-])ccc2O)cc1Br", "note": "[Compound 67]", "values": [{"measurement": "inhibition of cell proliferation, in words", "setting": "[1]", "value": "inhibited cell proliferation"}, {"measurement": "Growth_Inh % (50 μM) MCF10A", "setting": "[2]; [6]", "value": 70, "unit": "%"}, {"measurement": "inhibition at 50 µM", "setting": "[2]; 50 μM, read-out: In vivo growth inhb MCF10A % Inhb at 50", "value": 70, "unit": "%"}, {"measurement": "inhibition at 50 µM", "setting": "[2]; read-out: % growth inhibition MCF10A 50 uM", "value": 70, "unit": "%"}, {"measurement": "In vitro growth inhb HCT116 % Inhb at 50 (μM)", "setting": "[3]; 50 μM", "value": 70, "unit": "%"}, {"measurement": "Growth_Inh % (50 μM) HCT116", "setting": "[3]; [6]", "value": 70, "unit": "%"}, {"measurement": "inhibition at 50 µM", "setting": "[3]; Homo sapiens, HCT-116, read-out: % growth inhibition HCT116 50 uM", "value": 70, "unit": "%"}, {"measurement": "EC50", "setting": "[4]; Homo sapiens, cell line not stated", "value": "~10", "unit": "µM"}, {"measurement": "potentiation of the cytotoxic effects of DNA-damaging agents", "setting": "[4]; L67 3 μmol/L with MMS (MCF7 vs MCF10A), L189 20 μmol/L with ionizing radiation (HCT116 vs MCF10A), FIG. 9B", "value": "potentiate the cytotoxic effects of DNA-damaging agents"}, {"measurement": "cytotoxicity (cell survival)", "setting": "[4]; MCF7, HCT116, HeLa, MCF10A, FIG. 9A", "value": "cytotoxic"}, {"measurement": "Cell Extract 100 (μM): BER inhibited", "setting": "[5]; 100 μM, kind of BER not given", "value": "BER"}, {"measurement": "final ligation step of the flap substrate repair reaction", "setting": "[5]; [7]", "value": "inhibited the final ligation step of the repair reaction"}, {"measurement": "flap removal by FEN-1", "setting": "[5]; [7]", "value": "had no effect on flap removal by FEN-1"}]}
